Source: PubChem BioAssay AID1394 (PCMD, 2008)
Active and inactive are the calls of the source.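 Rule for the calls: active = fitted EC50 above 0 with maximum enhancement above 35%; inactive = the rest.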

Biological target: E3 ubiquitin-protein ligase Mdm2 (Homo sapiens) (UniProt Q00987)
Experiment: 384-well cell-based luminescence, MDM2-luciferase reporter signal enhancement, concentration series, MDM2 ligase inhibitor project (AID 1394)
Details: cells, MDM2-luciferase autoubiquitination reporter, 2 h; for maximum enhancement: hits give high values

Sequence of E3 ubiquitin-protein ligase Mdm2 (Homo sapiens) (Q00987 whole entry, looked up): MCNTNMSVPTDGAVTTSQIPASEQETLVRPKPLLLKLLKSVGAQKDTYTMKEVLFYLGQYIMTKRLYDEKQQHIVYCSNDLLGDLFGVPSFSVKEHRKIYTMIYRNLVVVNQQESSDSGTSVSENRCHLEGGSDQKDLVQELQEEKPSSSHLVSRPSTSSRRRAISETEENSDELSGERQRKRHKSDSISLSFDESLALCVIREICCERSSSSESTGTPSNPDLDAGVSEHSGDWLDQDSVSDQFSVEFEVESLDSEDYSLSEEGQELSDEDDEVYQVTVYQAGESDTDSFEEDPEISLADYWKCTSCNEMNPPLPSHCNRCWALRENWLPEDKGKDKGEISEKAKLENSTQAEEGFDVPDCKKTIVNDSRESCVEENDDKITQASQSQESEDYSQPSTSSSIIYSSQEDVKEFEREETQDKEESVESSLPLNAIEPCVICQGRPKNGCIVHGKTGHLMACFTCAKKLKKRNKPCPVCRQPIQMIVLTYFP

SMILES	maximum enhancement	EC50
CC1=NN(c2ccc(C)cc2)C(=O)/C1=C\C=C\c1ccccc1	inactive	
COc1ccc(NC(=O)/C(C#N)=C\c2ccc(OCc3ccc(C(=O)O)cc3)c(OC)c2)cc1	inactive	
CCN(C(=O)CSc1nc2ccccc2c(=O)n1-c1cccc(C)c1)C1CCS(=O)(=O)C1 (centres undefined)	inactive	
CCCCC(=O)/C=C/n1c(=S)oc2ccccc21	inactive	
O=C1CC(c2cccc(Cl)c2)CC(O)=C1C=NC1CCCC1 (centres undefined)		inactive
Cc1ccc(/C=C2/NC(=O)N(Cc3ccc(Br)cc3)C2=O)o1	inactive	
O=C(CN1CCCCC1)NC(=O)NCc1ccccc1	inactive	
Cc1ccc(Nc2nnc(SCC3CCCCO3)s2)cc1 (centres undefined)	inactive	
CC(=O)Cc1nsc(Nc2ccc(C)cc2)n1	inactive	
C=C1CCN(C(C(=O)OC)C(C)C)S(=O)(=O)c2ccccc21 (centres undefined)	inactive	
CCc1cc2c(=O)c(-c3nc4ccccc4n3C)c(CCCC(=O)O)oc2cc1OC(=O)C(C)(C)C	inactive	
Cc1cc(=O)n2[nH]c(N3C(=O)CCC3=O)nc2n1	inactive	
O=C(O)CCc1ccc(-c2ccc(Br)cc2)n1CC(=O)O	inactive	
Cc1[nH]c2ccc(Cl)cc2c(=O)c1CN1CCCC1	inactive	
COC(Cn1cc(C)c(=O)[nH]c1=O)OC	inactive	
O=C(c1cn(-c2ccccc2)nc1-c1cccs1)N1CCOCC1	inactive	
COc1ccccc1-c1nnc(Nc2nc3c(OC)cccc3s2)o1	inactive	

SMILES	maximum enhancement	EC50
COc1cc(/C=C2/C(=N)N3OC(C)=CC3=NC2=O)ccc1OC(=O)c1ccco1	inactive	
Cc1cc(C)cc(OCC(=O)NNC(=O)CCN2C(=O)c3ccccc3C2=O)c1	inactive	
Cn1c(=NC(=O)c2ccc3c(c2)OCCO3)sc2cc(S(C)(=O)=O)ccc21	inactive	
O=C(COc1ccccc1)Nc1ncccn1	inactive	
COc1ccc(OC(C)C(=O)Nc2ccccc2C(F)(F)F)cc1 (centres undefined)	inactive	
CCN(CC)Cc1cc(C(=O)O)c(C)o1	inactive	
O=S1(=O)C=C(Sc2nc3ccccc3s2)c2ccccc21	inactive	
CCCCS(=O)(=O)/C=C\C=C/S(=O)(=O)CCCC	inactive	
COc1ccc(N2C(=S)N=C(Nc3ccccc3)C23CCCCC3)cc1	inactive	
Cn1c(=O)cc(OCC(=O)NCc2cccs2)c2ccccc21	inactive	
O=C(CNCc1ccc(Cl)cc1)Nc1cccc(C(=O)O)c1	inactive	
CCn1cc(C(=O)NCc2ccccc2OC)c(=O)c2cc(S(=O)(=O)N(C)C)ccc21	inactive	
Fc1cccc(Cl)c1/C=N/n1c(-c2cccnc2)n[nH]c1=S	inactive	
N#Cc1nc(Cc2ccccc2)oc1NCCN1CCOCC1	inactive	
Cc1ccc(N2C(=O)NC(=O)/C(=C\C=C\c3ccco3)C2=O)cc1C	inactive	
C/C(=N\NC(N)=S)c1cccnc1	inactive	
N=C1C(c2nc3ccccc3[nH]2)=C(O)CN1c1ccccc1	inactive	
